Assay results from patent US11236081B2, “Crystalline salts of corydalmine” (priority 2018, dated 2022).
Several values for one entry are separate records, joined by “and”; a condition that tells them apart may be missing. Identical values can stand only once.

How the values were obtained:
[1] = Pharmacokinetic study: plasma concentration and plasma PK parameters after IV/PO dosing (LC-MS/MS, WinNonlin); format: in vivo, Male SD Rat; details: for AUCInf / AUClast / AUClast/D / AUC—% Extrap_obs / Cmax / MRTInf_obs / T1/2 / Tmax / AUCInf, Mean / AUClast, Mean / AUClast/D, Mean / AUC—% Extrap_obs, Mean / Cmax, Mean / MRTInf_obs, Mean / T1/2, Mean / Tmax, Mean: plasma
Text: Pharmacokinetic and Brain Penetration Study
Dose formulation processing during dosing: The dose formulations will be kept at room temperature.
Concentrations of Test Article in the plasma samples will be analyzed using a LC-MS/MS method.
WinNonlin (Phoenix™, version 6.1) or other similar software will be used for pharmacokinetic calculations. The following pharmacokinetic parameters will be calculated, whenever possible from the plasma concentration versus time data:
IV administration: T1/2, C0, AUClast, AUCinf, MRTinf, Cl, Vss, Number of Points for Regression.
PO administration: T1/2, Cmax, Tmax, MRTinf, AUCinf, AUClast, F %, Number of Points for Regression.
The pharmacokinetic data will be described using descriptive statistics such as mean, standard deviation.

[2] = Solubility studies in water at 2 hours; format: physicochemical
[3] = Dynamic vapor sorption (DVS), hygroscopicity at 25° C.; format: physicochemical
Description: Dynamic Vapor Sorption (DVS)
DVS was determined using DVS Intrinsic (SMS, UK). Transfer about 20 to 50 mg of the compound into a SMS dynamic vapor sorption model DVS and record the weight change with respect to a varying atmospheric humidity at 25° C.

[4] = PO (group POF), 10 mg/kg, individual rats R49, R50, R51, 10 mg/kg
[5] = PO (group POF), 10 mg/kg, mean of R49-R51
[6] = male SD rat, PO 10 mg/kg (equal to freebase), individual rats, vehicle 20% HP-β-CD in water (POA, freebase) or water (salts), listed as TLZ-16 HC1, 10 mg/kg
[7] = male SD rat, PO 10 mg/kg (equal to freebase), mean n=3, vehicle 20% HP-β-CD in water (POA, freebase) or water (salts)

## COc1cc2c(cc1OC)[C@@H]1Cc3ccc(O)c(OC)c3CN1CC2.O=S(=O)(O)O [TLZ-16 sulfate]
[1]; [4]
  F: 24.8% and 31.7% and 44.5%
  AUCInf: 840 ng·h/mL and 1074 ng·h/mL and 2115 ng·h/mL
  AUClast: 764 ng·h/mL and 899 ng·h/mL and 1486 ng·h/mL
  AUClast/D: 76.4 kg·ng·h/mL/mg and 89.9 kg·ng·h/mL/mg and 149 kg·ng·h/mL/mg
  AUC—% Extrap_obs: 9.10% and 16.3% and 29.8%
  Cmax: 231 ng/mL and 226 ng/mL and 401 ng/mL
  MRTInf_obs: 3.53 h and 4.44 h and 6.73 h
  T1/2: 2.37 h and 3.05 h and 4.97 h
  Tmax: 0.25 h (2×) and 0.5 h
[1]; [5]
  F, Mean: 33.7%
  AUCInf, Mean: 1343 ng·h/mL
  AUClast, Mean: 1049 ng·h/mL
  AUClast/D, Mean: 105 kg·ng·h/mL/mg
  AUC—% Extrap_obs, Mean: 18.4%
  Cmax, Mean: 286 ng/mL
  MRTInf_obs, Mean: 4.90 h
  T1/2, Mean: 3.46 h
  Tmax, Mean: 0.333 h
[1]; PO (group POF), 10 mg/kg, time 0 h, individual rats R49, R50, R51
  concentration in plasma, Conc.: BLOQ (BLOQ = below limit of quantitation (0.2 ng/mL))
[1]; PO (group POF), 10 mg/kg, time 0.25 h, individual rats R49, R50, R51, 10 mg/kg
  concentration in plasma, Conc.: 231 ng/mL and 226 ng/mL and 349 ng/mL
[1]; PO (group POF), 10 mg/kg, time 0.25 h, mean of R49-R51
  concentration in plasma, Mean: 269 ng/mL
[1]; PO (group POF), 10 mg/kg, time 0.5 h, individual rats R49, R50, R51, 10 mg/kg
  concentration in plasma, Conc.: 229 ng/mL and 223 ng/mL and 401 ng/mL
[1]; PO (group POF), 10 mg/kg, time 0.5 h, mean of R49-R51
  concentration in plasma, Mean: 284 ng/mL
[1]; PO (group POF), 10 mg/kg, time 1 h, individual rats R49, R50, R51, 10 mg/kg
  concentration in plasma, Conc.: 117 ng/mL and 161 ng/mL and 240 ng/mL
[1]; PO (group POF), 10 mg/kg, time 1 h, mean of R49-R51
  concentration in plasma, Mean: 173 ng/mL
[1]; PO (group POF), 10 mg/kg, time 2 h, individual rats R49, R50, R51, 10 mg/kg
  concentration in plasma, Conc.: 119 ng/mL and 152 ng/mL and 189 ng/mL
[1]; PO (group POF), 10 mg/kg, time 2 h, mean of R49-R51
  concentration in plasma, Mean: 153 ng/mL
[1]; PO (group POF), 10 mg/kg, time 4 h, individual rats R49, R50, R51, 10 mg/kg
  concentration in plasma, Conc.: 103 ng/mL and 110 ng/mL and 203 ng/mL
[1]; PO (group POF), 10 mg/kg, time 4 h, mean of R49-R51
  concentration in plasma, Mean: 139 ng/mL
[1]; PO (group POF), 10 mg/kg, time 8 h, individual rats R49, R50, R51, 10 mg/kg
  concentration in plasma, Conc.: 22.4 ng/mL and 39.9 ng/mL and 87.8 ng/mL
[1]; PO (group POF), 10 mg/kg, time 8 h, mean of R49-R51
  concentration in plasma, Mean: 50.0 ng/mL
[1]; PO (group POF), 10 mg/kg, time 24 h, individual rats R49, R50, R51
  concentration in plasma, Conc.: BLOQ (BLOQ = below limit of quantitation (0.2 ng/mL))
[2]
  solubility in water: approximately 20 mg/mL

## COc1cc2c(cc1OC)[C@@H]1Cc3ccc(O)c(OC)c3CN1CC2.Cl [TLZ-16 HCl]
[1]; male SD rat, PO 10 mg/kg (equal to freebase) vs IV 3 mg/kg freebase, individual rats, vehicle 20% HP-β-CD in water (POA, freebase) or water (salts), listed as TLZ-16 HC1
  F: 35.9% and 20.7% and 24.7%
[1]; male SD rat, PO 10 mg/kg (equal to freebase) vs IV 3 mg/kg freebase, mean n=3, vehicle 20% HP-β-CD in water (POA, freebase) or water (salts)
  F, Mean: 27.1%
[1]; male SD rat, PO 10 mg/kg (equal to freebase), 0 h, individual rats, vehicle 20% HP-β-CD in water (POA, freebase) or water (salts)
  concentration in plasma: BLOQ (BLOQ = below limit of quantitation (0.2 ng/mL))
[1]; male SD rat, PO 10 mg/kg (equal to freebase), 0.25 h, individual rats, vehicle 20% HP-β-CD in water (POA, freebase) or water (salts), 10 mg/kg
  concentration in plasma: 236 ng/mL and 239 ng/mL and 385 ng/mL
[1]; male SD rat, PO 10 mg/kg (equal to freebase), 0.25 h, mean n=3, vehicle 20% HP-β-CD in water (POA, freebase) or water (salts)
  concentration in plasma, Mean: 287 ng/mL
[1]; male SD rat, PO 10 mg/kg (equal to freebase), 0.5 h, individual rats, vehicle 20% HP-β-CD in water (POA, freebase) or water (salts), 10 mg/kg
  concentration in plasma: 225 ng/mL and 217 ng/mL and 356 ng/mL
[1]; male SD rat, PO 10 mg/kg (equal to freebase), 0.5 h, mean n=3, vehicle 20% HP-β-CD in water (POA, freebase) or water (salts)
  concentration in plasma, Mean: 266 ng/mL
[1]; male SD rat, PO 10 mg/kg (equal to freebase), 1 h, individual rats, vehicle 20% HP-β-CD in water (POA, freebase) or water (salts), 10 mg/kg
  concentration in plasma: 130 ng/mL and 149 ng/mL and 173 ng/mL
[1]; male SD rat, PO 10 mg/kg (equal to freebase), 1 h, mean n=3, vehicle 20% HP-β-CD in water (POA, freebase) or water (salts)
  concentration in plasma, Mean: 151 ng/mL
[1]; male SD rat, PO 10 mg/kg (equal to freebase), 2 h, individual rats, vehicle 20% HP-β-CD in water (POA, freebase) or water (salts), 10 mg/kg
  concentration in plasma: 135 ng/mL and 129 ng/mL and 115 ng/mL
[1]; male SD rat, PO 10 mg/kg (equal to freebase), 2 h, mean n=3, vehicle 20% HP-β-CD in water (POA, freebase) or water (salts)
  concentration in plasma, Mean: 126 ng/mL
[1]; male SD rat, PO 10 mg/kg (equal to freebase), 4 h, individual rats, vehicle 20% HP-β-CD in water (POA, freebase) or water (salts), 10 mg/kg
  concentration in plasma: 109 ng/mL and 60.3 ng/mL and 79.2 ng/mL
[1]; male SD rat, PO 10 mg/kg (equal to freebase), 4 h, mean n=3, vehicle 20% HP-β-CD in water (POA, freebase) or water (salts)
  concentration in plasma, Mean: 82.8 ng/mL
[1]; male SD rat, PO 10 mg/kg (equal to freebase), 8 h, individual rats, vehicle 20% HP-β-CD in water (POA, freebase) or water (salts), 10 mg/kg
  concentration in plasma: 44.3 ng/mL and 15.6 ng/mL and 14.1 ng/mL
[1]; male SD rat, PO 10 mg/kg (equal to freebase), 8 h, mean n=3, vehicle 20% HP-β-CD in water (POA, freebase) or water (salts)
  concentration in plasma, Mean: 24.7 ng/mL
[1]; male SD rat, PO 10 mg/kg (equal to freebase), 24 h, individual rats, vehicle 20% HP-β-CD in water (POA, freebase) or water (salts), 10 mg/kg
  concentration in plasma: 0.356 ng/mL and BLOQ (BLOQ = below limit of quantitation (0.2 ng/mL)) (2×)
[1]; male SD rat, PO 10 mg/kg (equal to freebase), individual rats, vehicle 20% HP-β-CD in water (POA, freebase) or water (salts)
  Tmax: 0.25 h
[1]; [6]
  AUCInf: 1217 ng·h/mL and 703 ng·h/mL and 837 ng·h/mL
  AUClast: 1216 ng·h/mL and 658 ng·h/mL and 798 ng·h/mL
  AUClast/D: 122 kg·ng·h/mL/mg and 65.8 kg·ng·h/mL/mg and 79.8 kg·ng·h/mL/mg
  AUC—% Extrap_obs: 0.101% and 6.34% and 4.66%
  Cmax: 236 ng/mL and 239 ng/mL and 385 ng/mL
  MRTInf_obs: 4.53 h and 2.86 h and 2.58 h
  T1/2: 2.39 h and 1.98 h and 1.92 h
[1]; [7]
  AUCInf, Mean: 919 ng·h/mL
  AUClast, Mean: 891 ng·h/mL
  AUClast/D, Mean: 89 kg·ng·h/mL/mg
  AUC—% Extrap_obs, Mean: 3.70%
  Cmax, Mean: 287 ng/mL
  MRTInf_obs, Mean: 3.32 h
  T1/2, Mean: 2.09 h
  Tmax, Mean: 0.250 h
[2]
  solubility in water: approximately 19.1 mg/mL
[3]; DVS, 25° C.
  hygroscopicity (DVS): slightly hygroscopic
[3]; after DVS test
  solid form after DVS test: does not change
[3]; at 80% RH, 25° C.
  water absorbed in DVS: about 0.57%
